“Also recorded” adds a separate entry of the source.
Assays:
[1] = test system: tauopathy mouse model; details: cited from earlier work
[2] = target: T1, HDAC6 enzyme (Homo sapiens, UniProt Q9UBN7); test: HDAC6 enzyme inhibitory assay (HDAC-Glo I/II Assay kit); type: biochemical; details: wells without enzyme = 100% inhibition; for inhibition at 10 µM: read-out: HDAC6 inhibitory rate (%) (10 μM)
T1 construct: HDAC6 enzyme prepared by transducing full length HDAC6 gene into Sf-9 insect cells; GST; purchased SignalChem; host or cells: Sf-9 insect cells
T1 sequence (Q9UBN7 1-1215): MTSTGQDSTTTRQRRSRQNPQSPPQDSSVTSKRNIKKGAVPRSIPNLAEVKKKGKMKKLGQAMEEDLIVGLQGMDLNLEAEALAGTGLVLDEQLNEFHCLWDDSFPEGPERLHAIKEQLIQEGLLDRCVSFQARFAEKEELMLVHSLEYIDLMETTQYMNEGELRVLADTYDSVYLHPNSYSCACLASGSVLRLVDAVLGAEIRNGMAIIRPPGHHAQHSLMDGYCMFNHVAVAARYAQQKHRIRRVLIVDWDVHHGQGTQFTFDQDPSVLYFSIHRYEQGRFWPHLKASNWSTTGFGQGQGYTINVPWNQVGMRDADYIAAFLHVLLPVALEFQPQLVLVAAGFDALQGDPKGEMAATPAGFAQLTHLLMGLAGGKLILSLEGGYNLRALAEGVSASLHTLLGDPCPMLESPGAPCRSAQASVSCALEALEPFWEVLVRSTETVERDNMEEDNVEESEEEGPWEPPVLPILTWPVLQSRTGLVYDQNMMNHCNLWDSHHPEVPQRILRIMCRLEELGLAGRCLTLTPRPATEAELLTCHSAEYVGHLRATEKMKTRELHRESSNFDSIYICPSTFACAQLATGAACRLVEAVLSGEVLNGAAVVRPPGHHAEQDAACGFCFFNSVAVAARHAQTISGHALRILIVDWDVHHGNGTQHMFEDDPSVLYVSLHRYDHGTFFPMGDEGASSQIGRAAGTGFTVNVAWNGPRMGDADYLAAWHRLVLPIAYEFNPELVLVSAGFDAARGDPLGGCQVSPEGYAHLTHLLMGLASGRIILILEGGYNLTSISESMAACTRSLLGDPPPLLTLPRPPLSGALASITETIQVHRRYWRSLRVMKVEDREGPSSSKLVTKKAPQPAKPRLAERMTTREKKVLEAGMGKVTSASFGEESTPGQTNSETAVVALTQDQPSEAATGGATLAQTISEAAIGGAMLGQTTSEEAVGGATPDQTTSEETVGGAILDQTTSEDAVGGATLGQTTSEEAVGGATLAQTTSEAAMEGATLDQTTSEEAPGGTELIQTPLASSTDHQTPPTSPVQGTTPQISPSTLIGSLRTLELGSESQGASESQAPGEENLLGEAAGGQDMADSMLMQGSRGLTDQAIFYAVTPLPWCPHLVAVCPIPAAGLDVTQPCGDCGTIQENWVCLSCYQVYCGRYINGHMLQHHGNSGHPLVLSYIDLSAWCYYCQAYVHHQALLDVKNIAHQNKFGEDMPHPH
Outline: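 Full-length GST-purified HDAC6 from Sf-9 cells preincubated with compound 60 min at room temperature in Tris-HCl pH 7.5 buffer with MgCl2, KCl, NaCl, glutathione, Tween-20. Substrate-developer reaction 20 min, luminescence read; no-enzyme wells set as 100% inhibition.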

[3] = test system: acetylated tubulin in mouse brain; test: Increase in acetylated tubulin in brain (hippocampus, ELISA); type: in vivo; details: male C57BL/6J mouse, oral, 4 h after administration
Text: A drug was suspended in 0.5% methyl cellulose to prepare a suspension for administration, having a concentration shown in Table 3. The suspension was orally administered into 8 to 10-week old male C57BL/6J mouse, and after the passage of the time shown in Table 3, the brain was taken out, and hippocampus was obtained. The hippocampus was homogenized under RIPA extract (FUJIFILM Wako Pure Chemical Corporation) to which protease inhibitor (Thermo Fisher Scientific) and phosphatase inhibitor (Thermo Fisher Scientific) were added, and centrifuged in 15,000 g for 15 min to prepare a protein extract. The acetylated tubulin and total tubulin in the extract were detected by the following ELISA method. Tubulin antibody (Sigma) was immobilized on 96-well plate (Microlite2+, Thermo Fisher Scientific), and the plate was stored at 4° C. Next day, the plate was washed four times with PBS-T, and blocking buffer (1% BSA/PBS-T) was added thereto, and the reaction was carried out at 37° C. for 2 hr. The plate was washed four times with PBS-T, and the above-mentioned protein extract was added thereto to capture the tubulin on the antibody. The plate was stored at 37° C. for 2 hr, and washed four times with PBS-T. Anti-acetylated tubulin antibody or total tubulin antibody (Cell Signaling Technology), each diluted with blocking buffer, was added thereto, and the reaction was carried out at 37° C. for 1 hr. […] The plate was washed, HRP substrate was added thereto, and the luminescence was measured using a plate reader. The acetylated tubulin and total tubulin were quantified from logistics curve based on dilution series using the mouse hippocampus tissue extract, and the amount of the acetylated tubulin relative to the total tubulin was calculated, and evaluated as an relative tubulin acetylation level. […] After F test for vehicle group and drug group, the significant difference between the two groups was analyzed by Student t-test or Welch test (indicated as *p<0.05, **p<0.01, n.s.: not significant). […]

[4] = test system: P301S mutant human tau (4R1N) Tg mouse; test: Cognitive improvement action in neurodegenerative disease model mouse (novel object recognition test); type: in vivo; details: once a day for three months
Method: A drug was suspended in 0.5% methyl cellulose to prepare a suspension for administration. The suspension was repeatedly administered into six month-old male P301S mutant human tau (4R1N) Tg mouse once a day for three months, and novel object recognition test was performed by the following method. The test is comprised of memory acquisition trial of object on the first day, and memory retention trial of familiar object and novel object on the second day. Drug was administered into the mouse 1 hr before the trials on both days. For acquisition trial, The mouse was put in a test box (30 cm×30 cm×25 cm) in which two identical objects were placed, and contact frequency and contact duration with the objects for 5 min were measured under 50 lux. Herein, the contact means a behavior getting a sniff of an object (Sniffing). Next day, one of the objects was replaced with new object, and contact frequency and contact duration with each object for 5 min were measured. Novelty discrimination index (NDI) as an index of cognitive function was calculated by novel object […]/(novel object contact duration+familiar object contact duration) %. […] After F test for vehicle administration wild-type group and vehicle administration Tg group, the significant difference between the two groups was analyzed by Student t-test or Welch test (indicated as **p<0.01). […]

Structure (SMILES) | inhibition at 10 µM [2] | relative tubulin acetylation level (acetylated tubulin relative to total tubulin) [3] | other results
CN1CCc2c(c3ccccc3n2Cc2ccc(C(=O)NO)cc2)C1 [Tubastatin A] |  |  | acetylation of tubulin [1]: increases acetylation of tubulin; therapeutic effectiveness [1]: shows therapeutic effectiveness
O=C1c2cc(-c3nnc(C(F)F)o3)ccc2CN1[C@H](c1ccccn1)[C@@H](O)c1ccccn1 [Example 1, 6-[5-(difluoromethyl)-1,3,4-oxadiazol-2-yl]-2-[(1R,2R)-2-hydroxy-1,2-di(pyridin-2-yl)ethyl]-2,3-dihydro-1H-isoindol-1-one] | 101% | increase in significant tubulin acetylation level; also recorded: increase in acetylated tubulin | cognitive improvement action (novelty discrimination, relative exploration time) [4]: cognitive improvement action
O=C1c2cc(-c3nnc(C(F)F)o3)ccc2CN1[C@H](c1ccccn1)[C@@H](O)c1ccc(F)cn1 [Example 3, 6-[5-(difluoromethyl)-1,3,4-oxadiazol-2-yl]-2-[(1R,2R)-2-(5-fluoropyridin-2-yl)-2-hydroxy-1-(pyridin-2-yl)ethyl]-2,3-dihydro-1H-isoindol-1-one] | 101% | increase in significant tubulin acetylation level; also recorded: increase in acetylated tubulin | cognitive improvement action (novelty discrimination, relative exploration time) [4]: cognitive improvement action
O=C1c2cc(-c3nnc(C(F)F)o3)ccc2CN1[C@H](c1ccc(F)cn1)[C@@H](O)c1ccc(F)cn1 [Example 5, 2-[(1R,2R)-1,2-bis(5-fluoropyridin-2-yl)-2-hydroxyethyl]-6-[5-(difluoromethyl)-1,3,4-oxadiazol-2-yl]-2,3-dihydro-1H-isoindol-1-one] |  | increase in significant tubulin acetylation level; also recorded: increase in acetylated tubulin | HDAC6 inhibitory rate (%) (10 μM) ([2]; 10 µM): 99%
O=C1c2cc(-c3nnc(C(F)F)o3)ccc2CN1[C@H](c1ncccn1)[C@@H](O)c1cccc(F)c1 (single isomer, unassigned) [Example 69, 6-[5-(difluoromethyl)-1,3,4-oxadiazol-2-yl]-2-[(1R*,2S*)-2-(3-fluorophenyl)-2-hydroxy-1-(pyrimidin-2-yl)ethyl]-2,3-dihydro-1H-isoindol-1-one] |  |  | HDAC6 inhibitory rate (%) (10 μM) ([2]; 10 µM): 100%
O=C1c2cc(-c3nnc(C(F)F)o3)ccc2CN1[C@H](c1cnccn1)[C@@H](O)c1cccc(Cl)c1 (single isomer, unassigned) [Example 92, 2-[(1R*,2S*)-2-(3-chlorophenyl)-2-hydroxy-1-(pyrazin-2-yl)ethyl]-6-[5-(difluoromethyl)-1,3,4-oxadiazol-2-yl]-2,3-dihydro-1H-isoindol-1-one] |  |  | HDAC6 inhibitory rate (%) (10 μM) [2]: 100%

Now from value to molecule, other results behind:

inhibition at 10 µM [2] | Structure (SMILES) | relative tubulin acetylation level (acetylated tubulin relative to total tubulin) [3] | other results
100% | O=C1c2cc(-c3nnc(C(F)F)o3)ccc2CN1[C@H](C1CC1)[C@@H](O)c1cccc(Cl)n1 (single isomer, unassigned) [Example 129, 2-[(1R*,2R*)-2-(6-chloropyridin-2-yl)-1-cyclopropyl-2-hydroxyethyl]-6-[5-(difluoromethyl)-1,3,4-oxadiazol-2-yl]-2,3-dihydro-1H-isoindol-1-one] |  | 
100% | O=C1c2cc(-c3nnc(C(F)F)o3)ccc2CN1[C@H](c1ccc(F)cn1)[C@@H](O)c1ccccn1 (single isomer, unassigned) [Example 59, 6-[5-(difluoromethyl)-1,3,4-oxadiazol-2-yl]-2-[(1R*,2R*)-1-(5-fluoropyridin-2-yl)-2-hydroxy-2-(pyridin-2-yl)ethyl]-2,3-dihydro-1H-isoindol-1-one] |  | 
100% | O=C1c2cc(-c3nnc(C(F)F)o3)ccc2CN1[C@H](c1cnccn1)[C@@H](O)c1cccc(Cl)c1 (single isomer, unassigned) [Example 91, 2-[(1R*,2S*)-2-(3-chlorophenyl)-2-hydroxy-1-(pyrazin-2-yl)ethyl]-6-[5-(difluoromethyl)-1,3,4-oxadiazol-2-yl]-2,3-dihydro-1H-isoindol-1-one] |  | 
